Laboratory results: publication PMC9029746, “Discovery of Azaindolin-2-One as a Dual Inhibitor of GSK3β and Tau Aggregation with Potential Neuroprotective Activity” (Pharmaceuticals, 2022)
Entries after “also recorded” stand apart in the source; their conditions may differ. Like-named read-outs stand apart in the source and are kept apart here. Values belong to the compound of their own block, whether it stands above or below them.

Key:
[1] = molecular target: T1, tau 2N4R isoform carrying P301L mutation (Homo sapiens, UniProt P10636, P618L); experiment: Tau aggregation inhibition in a cell model of tauopathy (Tau Aggregation Assay Kit, HeLa cells); format: cell-based; details: for anti-tau aggregation effect: Hela cells, seed+; for inhibitory activity against tau aggregation: 1, 3, 10, and 30 µM overall
T1 construct: host or cells: HeLa cells
T1 sequence (P10636 1-441 isoform P10636-8 P301L): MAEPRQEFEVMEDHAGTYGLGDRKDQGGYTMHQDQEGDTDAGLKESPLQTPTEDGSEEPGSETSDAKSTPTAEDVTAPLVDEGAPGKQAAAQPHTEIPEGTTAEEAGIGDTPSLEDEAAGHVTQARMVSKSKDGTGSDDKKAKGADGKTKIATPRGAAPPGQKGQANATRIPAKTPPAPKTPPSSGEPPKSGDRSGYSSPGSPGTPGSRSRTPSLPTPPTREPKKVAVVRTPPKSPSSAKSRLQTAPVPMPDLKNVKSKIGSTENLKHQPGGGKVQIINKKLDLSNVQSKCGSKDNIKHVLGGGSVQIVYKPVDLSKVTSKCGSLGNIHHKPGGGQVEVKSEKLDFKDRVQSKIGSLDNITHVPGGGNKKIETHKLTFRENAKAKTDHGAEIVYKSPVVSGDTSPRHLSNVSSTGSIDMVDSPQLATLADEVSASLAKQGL
Experimental: Aggregation of Tau is observed using Hela cells transduced with the expression vector of tau 2N4R isoform carrying P301L mutation and fibrils of tau protein with P301L mutation as seed. We tested the anti-aggregation effects of (E)-2f and 3a at four different concentrations, namely (1 µM, 3 µM, 10 µM, 30 µM), the measurements combined with negative seed (negative control = normal aggregation level), and positive seed (positive control = AD aggregation levels). In other words, seed— and + indicate the absence and presence of fibrils of tau protein with P301L mutation as seed, respectively.
Figure 9 Anti-tau aggregation activity of compounds (E)-2f and 3a at 1, 3, 10, and 30 µM concentrations. (A) Tau proteins were stained with green fluorescence in HeLa cells transfected with the expression vector of tau 2N4R isoform carrying P301L mutation and incubated with the compounds. Microscopic observation was performed, and photos were shown on a 100 µm scale. Seed negative (seed−) and seed positive (seed+) indicate the absence and presence of fibrils of tau protein with P301L mutation, respectively. (B) Relative green spots per area (%) after exposure of Hela cells to compounds (E)-2f and 3a are compared to seed positive (seed+ = 100%). ImageJ counted more than 100 spots in the same area in each sample. *: denotes significant difference from control (seed+) at p < 0.05, **: denotes significant difference from control (seed+) at p < 0.01.
According to the manufacturer’s protocol, the assay was performed using Tau Aggregation Assay Kit (Cosmo Bio, Tokyo, Japan [catalog number: TAU01]). Briefly, HeLa cells were transfected with pCMV-Tau(2N4R)-P301L (20 ng) using Lipofectamine 3000 (ThermoFisher Scientific, Waltham, MA, USA) and treated with F-Tau (RD)-P301L (fibrils of tau protein with P301L mutation as seed, included in the assay kit). Drugs were added after 6 h, and the cells were incubated for 1 day. Next, immunostaining was performed basically as previously described. Tau proteins were stained with green fluorescence. In this staining, a TAU antibody (Proteintech, Rosemont, IL, USA [catalog number: 10274-1-AP]) was used as the first antibody, and goat anti-rabbit IgG (H + L) highly cross-adsorbed secondary antibody, Alexa Fluor 488 ThermoFisher Scientific) was used as the second antibody. An All-in-One Fluorescence Microscope BIOREVO BZ-9000 (Keyence, Osaka, Japan) was used as the microscope. ImageJ counted more than 100 spots in the same area in each sample [40, 41].

PBMC = experiment: MTT assay, cytotoxicity on normal blood cells; format: cell-based; details: Homo sapiens, 72 h, read-out: IC50 (µM) after 72 h Drug Treatment, PBMC
Experimental: (§1) The human cervical carcinoma cell line HeLa, obtained from the American Type Culture Collection (ATCC), was cultured in Dulbecco’s modified Eagle’s medium (DMEM) supplemented with 5% heat-inactivated fetal bovine serum (FBS). The human glioblastoma cell line U251 (obtained from ATCC), colon carcinoma cell line HCT116 [provided by the RIKEN BRC through the National Bio-Resource Project of the MEXT/AMED, Japan (RCB2979)], and human melanoma cell line A375, obtained from ATCC, were cultured in DMEM supplemented with 10% heat-inactivated FBS. The human chronic myelogenous leukemia cell line K562 and human peripheral blood mononuclear cells (PBMC), both cells obtained from ATCC, were cultured in RPMI 1640 supplemented with 10% heat-inactivated FBS described previously.
(§2) Cells were seeded in a 24-well plate, and the compounds were added. After incubation for 3 days, a solution (1.1 mg/mL) of 3-(4,5-dimethylthiazol-2-yl)-2,5-diphenyl-2H-tetrazolium bromide (MTT, from DOJINDO Laboratories, Kumamoto, Japan) was added, and MTT assay was performed as previously described.

total tau = experiment: Western blot analysis of total tau in Hela cells; format: cell-based, human; details: 10 and 30 µM, 24 h, GAPDH normalization
Experimental: Western blot analysis was then used to confirm the amount of the total tau in Hela cells used for microscopic observation. The lysate of Hela cells, after incubation with compounds (E)-2f and 3a at 10 and 30 µM concentrations, were analyzed by immunoblotting using the same anti-Tau antibody (Figure S42). ImageJ was used to quantify the total tau at each concentration and compared to the total tau level of Hela cells with positive seed (seed+) alone as a control.
Figure 10 Effect of compounds (E)-2f and 3a on Tau levels. HeLa cells transfected with the expression vector of tau 2N4R isoform carrying P301L mutation and incubated with compounds (E)-2f and 3a at 10 and 30 µM concentrations for 24 h. Then Hela cells were lysed, and the lysates were analyzed by Western blotting. The relative amount of total tau expressed in the total cell lysate of Hela cells of each lane was quantified by ImageJ. The total tau level of Hela cells with positive seed (seed+) alone was calculated from total tau after GAPDH normalization and is presented as Control (1.00).
Western blot analysis was performed by lysing Hela cells in PBS/Laemmli sample buffer (1:1) as described previously. […] Chemiluminescence detected immunoreactivity using ImmunoStar LD (FUJIFILM-Wako, Osaka, Japan).

K562 = experiment: MTT assay, cytotoxicity; format: cell-based; details: Homo sapiens, K562, 72 h; read-out: IC50 (µM) after 72 h Drug Treatment, K562
Experimental: as §1, §2

HCT-116 = experiment: MTT assay, cytotoxicity; format: cell-based; details: Homo sapiens, HCT-116, 72 h; read-out: IC50 (µM) after 72 h Drug Treatment, HCT-116
Experimental: as §1, §2

A375 = experiment: MTT assay, cytotoxicity; format: cell-based; details: Homo sapiens, A-375, 72 h; read-out: IC50 (µM) after 72 h Drug Treatment, A375
Experimental: as §1, §2

U251 = experiment: MTT assay, cytotoxicity; format: cell-based; details: Homo sapiens, U-251, 72 h; read-out: IC50 (µM) after 72 h Drug Treatment, U251
Experimental: as §1, §2

human recombinant GSK3β = molecular target: T2, human recombinant GSK3β (Homo sapiens, UniProt P49841); experiment: GSK3β inhibition assay (GSK3β Kinase Enzyme System, ADP-Glo Kinase Assay); format: biochemical; details: for inhibition at 10 µM: read-out: percentage inhibition of GSK3β
T2 construct: purchased Promega Corporation, Madison, WI, USA (GSK3β Kinase Enzyme System)
T2 sequence (P49841 whole entry): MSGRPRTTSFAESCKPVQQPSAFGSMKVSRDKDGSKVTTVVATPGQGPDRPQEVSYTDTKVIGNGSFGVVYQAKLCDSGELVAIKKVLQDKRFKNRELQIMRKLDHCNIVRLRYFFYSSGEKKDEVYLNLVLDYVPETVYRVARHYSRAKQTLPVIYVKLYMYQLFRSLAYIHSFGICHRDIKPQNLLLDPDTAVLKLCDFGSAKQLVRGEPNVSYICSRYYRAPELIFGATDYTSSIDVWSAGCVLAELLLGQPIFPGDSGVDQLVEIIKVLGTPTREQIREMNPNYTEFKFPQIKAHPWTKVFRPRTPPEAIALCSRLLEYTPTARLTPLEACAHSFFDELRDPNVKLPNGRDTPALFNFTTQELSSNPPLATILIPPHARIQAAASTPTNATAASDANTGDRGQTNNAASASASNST
Experimental: Screening of GSK3β inhibition activity for our new library was conducted using the […] luminescence assay to determine how much ATP is reduced after a kinase reaction.
According to the manufacturer’s protocol, the assay was conducted using GSK3β Kinase Enzyme System and ADP-Glo Kinase Assay (Promega Corporation, Madison, WI, USA) in 384-well plates. The kinase reaction was performed at room temperature using 2 ng/μL of human recombinant GSK3β, 0.2 μg/μL of GSK3 substrate ([…] (pS) EDEEE; amino acids 636–661), and 25 μM ATP in 4X kinase buffer containing 50 μM DTT. The compounds were added to enzyme solution and incubated for 2 h at room temperature. Then, kinase activity was quantified using the ADP-Glo Kinase Assay as previously described.

GSK3β = details: cited from earlier work
tau fibrils = molecular target: tau fibrils; set-up: method as in PMID 17761424; details: cited from earlier work
beta-amyloid (Aβ) = molecular target: beta-amyloid (Aβ); set-up: method as in PMID 17761424; details: cited from earlier work
alpha-synuclein (α-syn) = molecular target: alpha-synuclein (α-syn); set-up: method as in PMID 17761424; details: cited from earlier work

Compound: CN(C)c1ccc(C=C2C(=O)Nc3ncccc32)cc1 (mixture of isomers) [Compound 3a, (E/Z)-3-(4-(dimethylamino)benzylidene)-1,3-dihydro-2H-pyrrolo [2,3-b]pyridin-2-one]
- anti-tau aggregation effect ([1]; 30 µM): completely protected Hela cells from tau aggregates
- inhibitory activity against tau aggregation [1]: concentration-dependent inhibitory activity
- IC50 (PBMC): 94.5 µM
- total tau level compared to Hela cells with seed+ alone (total tau): little or no difference; also recorded: minimal effect
- IC50 (K562): 4.7 µM
- IC50 (HCT-116): 9.8 µM
- IC50 (A375): > 100 µM
- IC50 (U251): 10.3 µM

Compound: O=C1Nc2ccccc2/C1=C\c1ccccn1 [(E)-2a, (E)-3-(pyridin-2-ylmethylene)indolin-2-one]
- IC50 (human recombinant GSK3β): > 10 µM
- IC50 (GSK3β): 0.00416 µM

- IC50 (human recombinant GSK3β; read-out: IC50 (µM) GSK3β): > 10 µM
Compound: O=C1Nc2ccc(Cl)cc2/C1=C\c1ccccn1 [(E)-2b, (E)-5-chloro-3-(pyridin-2-ylmethylene)indolin-2-one]

- inhibition at 10 µM (human recombinant GSK3β): 45%
- IC50 (human recombinant GSK3β; read-out: IC50 (µM) GSK3β): > 10 µM
Compound: O=C1Nc2cc(Cl)ccc2/C1=C\c1ccccn1 [(E)-2c, (E)-6-chloro-3-(pyridin-2-ylmethylene)indolin-2-one]

- inhibition at 10 µM (human recombinant GSK3β): < 30%
- IC50 (human recombinant GSK3β; read-out: IC50 (µM) GSK3β): > 10 µM
Compound: O=C1Nc2ccc(F)cc2/C1=C\c1ccccn1 [(E)-2d, (E)-5-fluoro-3-(pyridin-2-ylmethylene)indolin-2-one]

- inhibition at 10 µM (human recombinant GSK3β): < 30%
- IC50 (human recombinant GSK3β; read-out: IC50 (µM) GSK3β): > 10 µM
Compound: O=C1Nc2cc(F)ccc2/C1=C\c1ccccn1 [(E)-2e, (E)-6-fluoro-3-(pyridin-2-ylmethylene)indolin-2-one]

- anti-tau aggregation effect ([1]; 1 µM): no efficacy
- anti-tau aggregation effect ([1]; 3 µM): moderate efficacy
- anti-tau aggregation effect ([1]; 10 µM): significant anti-aggregation effect
- inhibition at 10 µM (human recombinant GSK3β): 76.4%
- IC50 (human recombinant GSK3β; read-out: IC50 (µM) GSK3β): 1.7 µM
Compound: O=C1Nc2ncccc2/C1=C\c1ccccn1 [(E)-2f, (E)-3-(pyridin-2-ylmethylene)-1,3-dihydro-2H-pyrrolo [2,3-b]pyridin-2-one]
- anti-tau aggregation effect ([1]; 30 µM): completely protected Hela cells from tau aggregates
- inhibitory activity against tau aggregation [1]: pronounced tau anti-aggregation effect; also recorded: concentration-dependent inhibitory activity
- IC50 (PBMC): > 300 µM
- total tau level compared to Hela cells with seed+ alone (total tau): little or no difference; also recorded: minimal effect
- IC50 (K562): 13.8 µM
- IC50 (HCT-116): 12.8 µM
- IC50 (A375): 14 µM
- IC50 (U251): 28.2 µM

- IC50 (human recombinant GSK3β; read-out: IC50 (µM) GSK3β): 3 µM
Compound: CCN(CC)c1ccc(/C=C2/C(=O)Nc3ncccc32)cc1 [(E)-3b]

- IC50 (human recombinant GSK3β; read-out: IC50 (µM) GSK3β): 3.2 µM
Compound: CN(C)c1ccnc(/C=C2/C(=O)Nc3ncccc32)c1 [(E)-3c]

- IC50 (human recombinant GSK3β; read-out: IC50 (µM) GSK3β): 5.9 µM
Compound: O=C1Nc2ncccc2/C1=C\c1ccncc1 [(E)-3d]

- IC50 (human recombinant GSK3β; read-out: IC50 (µM) GSK3β): 1.9 µM
Compound: CN(C)c1ccc(/C=C2\C(=O)Nc3ncccc32)cc1 [(Z)-3a]

- IC50 (human recombinant GSK3β; read-out: IC50 (µM) GSK3β): 3 µM
Compound: CCN(CC)c1ccc(/C=C2\C(=O)Nc3ncccc32)cc1 [(Z)-3b]

- IC50 (human recombinant GSK3β; read-out: IC50 (µM) GSK3β): 5.9 µM
Compound: O=C1Nc2ncccc2/C1=C/c1ccncc1 [(Z)-3d]

Compound: Cn1cc(-c2[nH][nH]c(=O)c2-c2cn(C)c3ccccc23)c2ccccc21 [III]
- IC50 (GSK3β; in vitro): 0.034 µM

Compound: COc1ccc2c(c1)c(/C=C1\SC(=O)NC1=O)cn2C [IV]
- IC50 (GSK3β): 0.89 µM

Compound: Clc1cc(-c2c[nH]c3ncccc23)cc(NC2CCCCC2)n1 [Native ligand]
- Ki (GSK3β): 0.058 µM

Compound: CN(C)c1ccc(/C=C2/C(=O)Nc3ccccc32)cc1 [VII]
- Ki (tau fibrils): 95 nM
- Ki (beta-amyloid (Aβ)): 140 nM
- Ki (alpha-synuclein (α-syn)): 490 nM

Compound: O=C1NC(=S)S/C1=C\c1cccc(-c2ccc3c(c2)OCO3)n1 [V]
- IC50 (GSK3β): 1.6 µM
